This is an account of results in the OPERA property sets (Mansouri et al. 2018).

In general, logP refers to the decadic logarithm of the partition coefficient of the neutral form, usually between octanol and water. A high value points to a more lipophilic compound.

Peptide text beside a SMILES is read from it.

In the case of `CON=C(C(=O)NC1C(=O)N2C(C(=O)OC(C)OC(C)=O)=C(COC(N)=O)CSC12)c1ccco1` (stereo unspecified), the logP came out at 0.89.
The same measure for `S=C=Nc1cccc2ccccc12`: 4.34; for `Fc1cc(F)c(F)c(F)c1F`: 2.53.
The same measure for `c1ccc2c(c1)CCO2`: 2.14; for `CCc1cc(OC)c(CC(C)N)cc1OC` (stereo unspecified): 2.81.
As for `Cc1c(NC(=O)C(C)N(C)C)c(=O)n(-c2ccccc2)n1C` (stereo unspecified), the logP was -0.05.
Turning to `CN(C)C(N(C)C)=S(I)c1c(Cl)cc(Cl)cc1Cl` (stereo unspecified), the logP worked out at 0.05.
The same measure for `CC(=O)C(=Cc1ccc(Br)cc1)C(C)=O`: 2.75.
The compound `CC(=O)C(=Cc1ccccc1)C(C)=O` displayed a logP of 1.59.
The same measure for `CN(C)C(=O)Nc1cccc(C(F)(F)F)c1`: 2.42.
The same measure for `CC(C)NC(=O)C=Cc1ccc([N+](=O)[O-])o1`: 1.34; for `CC1CN1C1=C(F)C(=O)C(N2CC2C)=C(F)C1=O` (stereo unspecified): 1.61; for `CCOP(=S)(Oc1ccc(C#N)cc1)c1ccccc1` (stereo unspecified): 4.29.
The compound `O=C(CCn1cnc([N+](=O)[O-])n1)N1CCOCC1` yielded a logP of -0.74.
For `Clc1cc(Cl)c(Cl)nc1Cl`, the logP came to 3.32.
The same measure for `COc1ccc(-c2nc3cnccc3o2)c(OC)c1`: 2.42; for `[O-][n+]1cccc2ccccc21`: 0.36.
The same measure for `CCc1ccc(N2C(=O)CCC2=O)cc1`: 1.1; for `CCCl`: 1.43.
For `CCOP(=S)(OCC)SCn1nnc2ccccc2c1=O`, the logP was found to be 3.4.
As to `OCC(O)CO`, the log partition coefficient (logP) was -1.76.
The same measure for `COc1ccco1`: 1.44.
The same measure for `FC(F)(Cl)C(F)(Cl)Cl`: 3.16.
The same measure for `CCC1(CC(C)C(C)C)C(=O)NC(=O)NC1=O` (stereo unspecified): 2.02; for `O=C(O)COc1ccccc1Cl`: 1.86; for `O=CO`: -0.54.
Turning to `Nc1cc([N+](=O)[O-])cc([N+](=O)[O-])c1`, the logP worked out at 1.89.
The same measure for `CC(C)COC(N)=O`: 0.65; for `O=C1CC(OC(=O)c2ccccc2)N1` (stereo unspecified): 1.37; for `O=S(=O)(Nc1ccccc1)C(F)(F)F`: 3.05.
For `CN(C)N=Nc1ccc(C=CC(=O)O)cc1` the value was 2.66.
For `O=C(Nc1ccccc1)Nc1ccc(Cl)c(Cl)c1` the value was 4.7; for `O=C(CCCN1CCC(n2c(=O)[nH]c3ccccc32)CC1)c1ccc(F)cc1`, 3.91.
`O=[N+]([O-])c1ccsc1`: the logP was determined as 1.55.
`CC1(C)CCC(C)(C)O1`: the logP came out at 2.06.
Compound `CCC(C)C(NC(=O)C(Cc1ccccc1)NC(C)=O)C(=O)NCC(N)=O` (stereo not drawn) (Ac-Phe-Ile-Gly-NH2; configuration not given here) came in with a logP of 0.34.
With `O=C(Nc1ncnc2c1ncn2[C@@H]1O[C@H](CO)[C@@H](O)[C@H]1O)c1ccccc1`, the logP is -0.1.
In the case of `N#CCNc1ccccc1C(N)=O`, the logP is 0.5.
The same measure for `O=C(O)CCC(=O)c1ccc(-c2ccccc2)cc1`: 3.2.
The compound `Ic1ccc2ccccc2n1` came in with a logP of 3.04.
On to `CCOC(N)=O`, for which the logP was -0.15.
With `COCCOC(=O)c1ccccc1`, the logP was 1.78.
As to `NC(=S)c1ccccc1`, the logP was 1.49.
The same measure for `NC=O`: -1.51; for `CCOC(=O)c1cc(O)c(O)c(O)c1`: 1.3; for `O=C(O)c1ccc(O)c(O)c1O`: 1.05.
The same measure for `O=[N+]([O-])c1ccc(Br)cc1`: 2.55; for `NC(=O)OCCC1=C(N2CC2)C(=O)C(Br)=C(N2CC2)C1=O`: 0.68; for `c1ccc(C2CNCCO2)cc1` (stereo unspecified): 1.11.
The same measure for `CC12CCC(=O)C=C1CCC1C3CCC4(CCC(=O)O4)C3CCC12C` (stereo unspecified): 2.98; for `c1cnccn1`: -0.26.
`CC(C#N)c1ncc([N+](=O)[O-])[nH]1` (stereo unspecified) had a logP of -0.07.
With `O=S(=O)(CF)Nc1ccc(Cl)cc1`, the logP turned out to be 2.25.
For `CC(C)N` the value was 0.26.
For `CCC1(c2ccccc2)C(=O)NC(=O)NC1=O` the value was 1.47.
For `CC(Oc1cc(Cl)c(Cl)cc1Cl)C(=O)O` (stereo unspecified) the value was 3.8.
For the compound `O=P(Oc1ccccc1)(Oc1ccccc1)Oc1ccccc1`, the logP stood at 4.59.
`C=CCN1CC[C@]23c4c5ccc(O)c4O[C@H]2[C@@H](O)C=C[C@H]3[C@H]1C5` yielded a logP of 1.86.
As to `NNc1ccccc1`, the logP stood at 1.25.
Compound `O=C(O)Cc1ccc(C(F)(F)F)cc1` had a logP of 2.45.
Compound `CCCCOCCCC` yielded a logP of 3.21.
For the compound `Cc1c[nH]cn1`, the logP turned out to be 0.23.
For `c1ccc(-c2cccs2)cc1` the value was 3.74.
The same measure for `Nc1ccccc1C(=O)O`: 1.21; for `CCOP(=S)(OCC)SCSC(C)(C)C`: 4.48.
For `CCCC[SiH](C)C` the value was 3.57.
Take `Ic1nc(I)c(I)[nH]1`: the logP was found to be 2.78.
The same measure for `Fc1c(F)c(F)c(F)c(F)c1F`: 2.55.
Compound `O=C(CN1CCCCC1)Nc1cccc(Br)c1` yielded a logP of 3.62.
As to `Cc1ccc(S(I)=C(N(C)C)N(C)C)cc1Cl` (stereo unspecified), the logP was 0.45.
The same measure for `O=S(=O)(c1ccccc1)c1ccc2ncccc2c1`: 2.57; for `Nc1ccc(C(=O)Oc2ccccc2Br)c(O)c1`: 3.74; for `CC(=O)CNc1ccccc1C(=O)O`: 1.85.
The same measure for `CNC(=O)Oc1ccc(C)c(C)c1`: 2.09.
`Cc1onc(-c2c(Cl)cccc2Cl)c1C(=O)N[C@@H]1C(=O)N2[C@@H]1SC(C)(C)[C@@H]2C(=O)O` returned a log partition coefficient (logP) of 2.91.
For `CSCC(=O)C=NO` the value was 1.21; for `CON(C)C(=O)Nc1ccc2c(c1)Cc1ccccc1-2`, 3.67; for `CCCN(CCC)C(=O)SCC`, 3.21.
For `c1cc2c3c(cccc3c1)CC2` the value was 3.92.
`CC(=O)C1CC1` showed a logP of 0.49.
Compound `COP(=O)(C=C(Cl)Cl)OC` yielded a logP of 1.4.
For `CCCCCCOc1ccccc1NC(=O)OCCN1CCCCC1` the value was 5.29; for `CCCCCCCC(C)=O`, 3.14.
For `NS(=O)(=O)NCCc1ccccc1` the value was 0.81; for `COc1ccc(C=C(C(C)=O)C(C)=O)cc1`, 1.73; for `O=CNc1ccc([N+](=O)[O-])cc1`, 1.43.
Regarding `Cc1ccc(S(=O)(=O)F)cc1`, the lipophilicity (logP) stood at 2.74.
The same measure for `CC(=O)[C@@]1(O)CC[C@H]2[C@@H]3CCC4=CC(=O)CC[C@]4(C)[C@H]3CC[C@@]21C`: 3.17; for `CC(=O)Nc1cccc2nccnc12`: 1.06; for `CC[C@H](C)[C@H](N)C(=O)O`: -1.72.
For `COc1cnc2ccccc2n1` the value was 2.31; for `COc1cc(C(=O)O)ccc1O`, 1.43; for `CC(=O)N[C@H](C(=O)N[C@@H](C)C(=O)N[C@@H](C)C(N)=O)C(C)C`, -1.4.
With `N#CCc1ccsc1`, the logP came to 1.26.
The same measure for `CCC(C)c1ccccc1OC(=O)NC` (stereo unspecified): 2.78.
In the case of `Oc1nc2ccccc2s1`, the log partition coefficient (logP) came out at 1.76.
For `Oc1ccc(Oc2ccccc2)cc1` the value was 3.35; for `CCNC(=O)c1ccccc1`, 1.28.
For `CCC(=O)O[C@]1(C(=O)CO)CC[C@H]2[C@@H]3CCC4=CC(=O)CC[C@]4(C)[C@H]3[C@@H](O)C[C@@]21C` the value was 2.7.
For `Oc1ccc2ccccc2c1` the value was 2.7.
As for `CCCCOc1cccc(OC(=O)NC)c1`, the logP came out at 2.96.
On to `COc1ccc(-c2nc3cnccc3n2C)c(OC)c1`, for which the logP turned out to be 2.66.
Take `CN(C)C(N(C)C)=S(I)c1cc(Cl)cc(Cl)c1` (stereo unspecified): the logP amounted to 0.52.
The same measure for `CCCCNCc1cccnc1`: 1.34.
`N#CC(Cl)(Cl)Cl` had a logP of 2.09.
For `CNc1c(Cl)cccc1Cl` the value was 2.91.
Regarding `CCCCCCC(=O)NN`, the logP worked out at 0.97.
For `CS(=O)(=O)CCC(N)C(=O)O` (stereo unspecified) the value was -3.1; for `COc1cccc(C=O)c1O`, 1.37; for `Clc1cc(Cl)nc(Cl)c1`, 2.68.
`CCCCNC(=O)n1c(NC(=O)OC)nc2ccccc21` registered a logP of 2.12.
The same measure for `Fc1cccnc1`: 0.77; for `NC(Cc1ccc2ccccc2c1)C(=O)O` (stereo unspecified): -0.15.
In turn, `C=C` showed a log partition coefficient (logP) of 1.13.
For `OC(c1ccc(Cl)cc1)(c1cncnc1)c1ccccc1Cl` (stereo unspecified) the value was 3.6.
For `CCCN1CCCC[C@H]1C(=O)Nc1c(C)cccc1C` the value was 2.9.
The compound `O=CNc1cccc([N+](=O)[O-])c1` came in with a logP of 1.4.
The same measure for `Cc1ccno1`: 0.45; for `CCOC(=O)C(=Cc1ccc(Br)cc1)C(=O)OCC`: 4.02.
For `CCC(c1ccccc1)c1c(O)c2ccccc2oc1=O` (stereo unspecified) the value was 3.62.
In the case of `COC(=O)Cc1ccccc1`, the logP was 1.83.
The same measure for `CC(C)NNC(=O)COc1ccc(Cl)cc1`: 2.02; for `Cc1ccc([N+](=O)[O-])cc1`: 2.37; for `CN(C)C(N(C)C)=S(I)c1cc(Cl)c(Cl)cc1Cl` (stereo unspecified): 0.68.
`Nc1ccccc1[N+](=O)[O-]` showed a logP of 1.85.
With `CCc1ccc([N+](=O)[O-])cc1`, the logP was 3.03.
Regarding `CCCCCNc1nc(NCC)nc(SC(F)F)n1`, the logP was determined as 4.71.
For `ClC1C=CC(Cl)C(Cl)C1Cl` (stereo unspecified), the logP came to 3.08.
The same measure for `c1ccc(-c2ccncn2)cc1`: 1.92.
Compound `NC1=C(Cl)C(=O)c2ccccc2C1=O` yielded a logP of 2.12.
Take `OCCn1nnc2ccccc21`: the logP was determined as 0.5.
As to `CS(=O)(=O)c1ccc2ncccc2c1`, the logP was 0.7.
The same measure for `CN(C)CCOC(=O)c1ccc(Cl)cc1`: 2.63; for `c1cc2snnc2c2c1CCNC2`: 1.35.
Regarding `O=[N+]([O-])c1nccn1CCO`, the logP is -0.47.
Compound `c1ccc2c(c1)COC2` displayed a logP of 1.76.
